{
  "source": "patent EP2050747A1",
  "about": "“Dimers of harmol or of its derivatives and uses thereof” (BioAlliance Pharma, priority 2007, dated 2009)",
  "key": {"F-actin": {"test_system": "F-actin", "assay": "Actin dynamics, fluorescence anisotropy assay in tumor cell cytosolic fraction", "assay_type": "biochemical", "design": "Kobs: unit not given beside the values", "settings": "for F actin steady state value (Δ mA max), effect in words / F actin elongation rate constant (Kobs), effect in words: added to assay medium, versus untreated; for F actin steady state value (Δ mA max), effect in words: NIH 3T3 EF cytosolic fraction or lysate, harmol at 10 µM", "description": "Actin dynamics have been quantified in tumor cell cytosolic fraction using the fluorescence anisotropy assay which gains access to rate constant of F-actin elongation (kobs) and steady state concentration of F-actin (Δ mA max).\nAll reactions were carried out at 22°C and fluorescence anisotropy signal was recovered at 520 nm with excitation at 490 nm in a Beacon 2000 (Panvera). Alexa 488 actin (Molecular Probes) was centrifuged at 35 000 rpm for 2 h at 4°C to sediment residual actin polymers in a Beckman L5-50B ultracentrifuge. […] 80% of the supernatant was withdrawn; the concentration was defined through fluorescence measurements (excitation at 490 nm and signal recovering at 520 nm). The ultracentrifuged actin concentration was calculated using the non ultracentrifuged Alexa 488 actin as a standard. The supernatant was aliquoted, frozen in liquid nitrogen and stored at -80°C.\nBefore experiment, an aliquot of ultracentrifuged Alexa 488 actin was diluted to a concentration of 1 mg/ml in G buffer (5 mM Tris pH 8.1, 2 mM CaCl2, 0.2 mM DTT, 0.2 mM ATP). 3 µl of diluted Alexa 488 actin was mixed in 168 µl of G buffer and actin monomers anisotropy was measured before the addition of 4 µl of polymerisation buffer (2.5 M KCI, 50 mM MgCl2, 25 mM ATP), 5 µl of G buffer in the presence or in the absence of the chemical molecule and 20 µl cellular extract of normal NIH 3T3 cells or malignant NIH 3T3 EF cells at 2 mg/ml. The final concentration of Alexa 488 actin was 4 nM. The ratio of unlabelled to labelled actin was about 140/4 nM. Measurements were made each 10 sec for 200 sec. Actin monomers anisotropy value was subtracted, yielding the anisotropy enhancement (Δ mA). The data were fitted with the equation Y= Ymax . [1- exp(- K.X)]. The curves start at zero and ascend to Ymax that corresponds to the steady state anisotropy value (Δ mA eq), with a rate constant K. Y is anisotropy values of which monomers anisotropy is substracted and X is the time (Assessment of cellular actin dynamics by measurement of fluorescence anisotropy. Anal Biochem. 2007 Aug 1;367(1):95-103. Epub 2007 Apr 5. Spitz et al.)."}, "NIH 3T3 EF [1]": {"test_system": "NIH 3T3 EF", "assay": "MTT assay (cellular viability)", "assay_type": "cell-based", "settings": "Mus musculus, NIH3T3, 72 h, 3 days", "description": "(§1) Growth studies were performed using the [3-(4,5 dimethylthiazol-2-yl)-2,5-diphenyl-2H-tetrazolium bromide] (Sigma) colorimetric assay.\n(§2) About 1500 cells were seeded in a 96-well culture plate 24 hours before adding increasing concentrations of tested molecule. The plate was incubated at 37°C for 3 days. 10 µl MTT stock solution (5 mg/ml in phosphate buffer saline) was added to 90 µl of complete medium in each well, the incubation was continued for 3 h at 37°C. 100 µl of lysis buffer (10 % sodium dodecyl sulfate, 1% HCl 1N; pH 4.7) was added to each well, and the plate was incubated overnight. The absorbance was determined using an Integrated EIA Management System (Labsystem) at a wavelength of 570 nm. The proliferation rates were calculated from the OD readings using the untreated cells as 100%."}, "B16F10 [2]": {"test_system": "B16F10", "assay": "MTT assay (cellular viability)", "assay_type": "cell-based, Murine", "settings": "Mus musculus, B16-F10, 72 h; B16F10, 3 days", "description": "as §1, §2"}, "NIH 3T3 EF [3]": {"test_system": "NIH 3T3 EF", "assay": "Cloning assay, colony formation in semi solid medium (methylcellulose)", "assay_type": "cell-based", "description": "(§3) Cells were embedded in complete culture medium supplemented with 0,8% methylcellulose (Methocel MC4000, Sigma), seeded in triplicate into 35-mm dishes (Greiner Bio-one Ref 627102, Dominique Dutscher) and incubated at 37 °C in a humidified 5% CO2 atmosphere.\n(§4) The number of cells seeded was 1000 cells per dish. After one week (B16F10 cell line) to 3 weeks (NIH 3T3 EF cell line), macroscopic clones were counted."}, "B16F10 [4]": {"test_system": "B16F10", "assay": "Cloning assay, colony formation in semi solid medium (methylcellulose)", "assay_type": "cell-based, Murine", "description": "as §3, §4"}, "NIH 3T3 EF cells": {"test_system": "NIH 3T3 EF cells", "assay": "Rescue of F-actin network, FITC-phalloidin fluorescence microscopy", "assay_type": "cell-based", "description": "Malignant NIH 3T3 EF cells were seeded onto glass cover slips at a density of 2000 cells per cm^2. The next day, tested molecules were applied to NIH 3T3 EF cells at various non cytotoxic concentrations. Three days later, cells were fixed for 10 min in PBS containing 3.7 % formaldehyde at 4°C before examination with a fluorescence microscope. The formaldehyde solution was neutralized with 50 mM NH4Cl. Permeabilisation was carried out for 4 min with 0.4% Triton X-100 in PBS. Cells were incubated for 1 h at room temperature with blocking buffer (3% bovine serum albumin in PBS) and then for 1 h with FITC-phalloidin (Sigma) which stabilizes structures by inhibiting phosphate release from ADP-Pi-actin filaments and allows visualization of actin filaments by fluorescence microscopy. The cover slips were mounted on microscope slides using a solution of glycerol 50%, DABCO 2.5% in PBS as embedding medium."}, "[5]": {"test_system": "malignant NIH 3T3 EF cells", "assay": "Wound healing assay (cell motility)", "assay_type": "cell-based", "description": "(§5) Harmol dimers have been tested in a cell motility assay: the behaviour of tumoral cells treated by these dimers was compared with non-treated tumoral cells in a wound healing assay. Wound healing assay was performed to evaluate the effect of tested molecules on motility of malignant NIH 3T3 EF cells and melanoma cell line B16F10. About 100 000-200 000 cells were seeded in a 6-well culture plate and the tested molecule was added 24 hours later. Cells were grown for 3 days to confluence about 90-95% and small scratch-wounds (1 mm width) were made with a pipette tip. Cell debris were removed, then the cultures were incubated in complete medium for 10 h in the presence of the same concentration of the tested molecule. Then, the cells were fixed for 10 min in PBS containing 3.7% formaldehyde at 4°C."}, "[6]": {"test_system": "melanoma cell line B16F10", "assay": "Wound healing assay (cell motility)", "assay_type": "cell-based, Murine", "settings": "B16F10, non cytotoxic concentration (25-100 nM), 24 h after wound formation, Figure 6", "description": "as §5, with “Cell debris were removed, then the cultures were incubated in complete medium for 10 h in the presence of the same concentration of the tested molecule.” left out"}, "B16F10 tumor": {"test_system": "B16F10 tumor", "assay": "In vivo tumorigenicity assay, subcutaneous B16F10 tumor growth", "design": "species or system C57BU6 mice", "description": "Female 6-8 week-old C57BU6 mice were provided by Harlan (Gannat, France).\nAnimals were housed in air-conditioned atmosphere, given food and water in standard conditions. One million B16F10 cells in 0.1 ml PBS were injected subcutaneously into the right flank of mice. Seven days after cells inoculation, it was possible to measure tumor volume (day 0). Thereafter, before drug administration, female C57BU6 mice were randomized to form 2 groups. […]\nB16F10 tumor development was monitored for 2 weeks. The tumor size was estimated every fourth day by measuring the diameters of the tumors in two perpendicular dimensions using callipers. The volume of tumor (V) was calculated using the formula, V = 2W(U2)2 , where L and W were respectively the length and the width of tumor.\nIn vivo tumorigenicity assay was studied with harmine. […] In parallel, control mice were treated by one daily oral route administration of the vehicle."}, "human tumor cell lines": {"test_system": "human tumor cell lines", "settings": "cited from earlier work"}, "[7]": {"test_system": "cyclin-dependent kinases (CDKs)", "settings": "cited from earlier work"}, "monoamine oxydase": {"test_system": "monoamine oxydase", "settings": "cited from earlier work"}},
  "data": [
    {"smiles": "Cc1nccc2c1[nH]c1cc(OCCCCCOc3ccc4c(c3)[nH]c3c(C)nccc34)ccc12", "note": "[BA016DD1172, 7,7'-[Pentane-1,5-diylbis(oxy)]bis(1-methyl-9H-β-carboline)]", "values": [
      {"measurement": "Kobs", "setting": "F-actin; 10 µM, NIH 3T3 EF extract, rate constant of F-actin elongation", "result": "0,179"},
      {"measurement": "Δ mA max", "setting": "F-actin; 10 µM, NIH 3T3 EF extract, steady state concentration of F-actin (anisotropy enhancement)", "result": 62},
      {"measurement": "actin polymerisation kinetics compared with normal NIH 3T3 cytosolic fraction", "setting": "F-actin; 10 µM, tumoral NIH 3T3 EF cytosolic fraction", "result": "similar"},
      {"measurement": "F actin steady state value (Δ mA max), effect in words", "setting": "F-actin", "result": "increased"},
      {"measurement": "F actin elongation rate constant (Kobs), effect in words", "setting": "F-actin; NIH 3T3 EF cytosolic fraction", "result": "increased"},
      {"measurement": "IC50", "setting": "NIH 3T3 EF [1]", "result": 300, "unit": "nM"},
      {"measurement": "IC50", "setting": "B16F10 [2]", "result": 400, "unit": "nM"},
      {"measurement": "inhibitory activity on NIH 3T3 EF colony formation in methylcellulose semi-solid medium", "setting": "NIH 3T3 EF [3]; Figure 2", "result": "marked inhibitory activity"},
      {"measurement": "IC50", "setting": "NIH 3T3 EF [3]; Mus musculus, NIH3T3, 504 h, NIH 3T3 EF, 3 weeks, read-out: Inhibition of colony formation (methylcellulose) IC50", "result": 50, "unit": "nM"},
      {"measurement": "inhibitory activity on B16F10 colony formation in methylcellulose semi-solid medium", "setting": "B16F10 [4]; Figure 3", "result": "marked inhibitory activity"},
      {"measurement": "IC50", "setting": "B16F10 [4]; Mus musculus, B16-F10, 168 h, B16F10, one week, read-out: Inhibition of colony formation (methylcellulose) IC50", "result": 30, "unit": "nM"},
      {"measurement": "reorganisation of the actin network in tumor cells", "setting": "NIH 3T3 EF cells; non cytotoxic concentration (100 nM), three days, Figure 4", "result": "able to reorganise the actin network"},
      {"measurement": "inhibition of malignant cell motility", "setting": "[5]; NIH 3T3 EF, non cytotoxic concentration (25-100 nM), 10 h after wound formation, Figure 5", "result": "inhibited"},
      {"measurement": "inhibition of malignant cell motility", "setting": "[6]", "result": "inhibited"},
      {"measurement": "antitumor activity against B16 melanoma", "setting": "B16F10 tumor; daily per os 100 mg/kg for five days, Figure 7", "result": "marked antitumor activity"},
      {"measurement": "tumoral growth inhibition", "setting": "B16F10 tumor; day 7, daily per os 100 mg/kg for five days, versus control group, p = 0,0020", "result": "48,5%"}
    ]},
    {"smiles": "COc1ccc2c(c1)[nH]c1c(C)nccc12", "note": "[harmine, reference compound]", "values": [
      {"measurement": "F actin elongation rate constant compared with NIH 3T3 cytosolic fraction", "setting": "F-actin; NIH 3T3 EF cytosolic fraction, BA016FZ527 at 10 µM, harmine concentration not given", "result": "lower"},
      {"measurement": "F actin steady state value (Δ mA max), effect in words", "setting": "F-actin", "result": "increase"},
      {"measurement": "F actin elongation rate constant (Kobs), effect in words", "setting": "F-actin; NIH 3T3 EF cytosolic fraction", "result": "increase"},
      {"measurement": "concentration at which inhibition of NIH 3T3 EF colony formation was observed", "setting": "NIH 3T3 EF [3]; in words", "result": "micromolar concentration"},
      {"measurement": "concentration at which inhibition of B16F10 colony formation was observed", "setting": "B16F10 [4]", "result": "about 1 µM"},
      {"measurement": "modification in actin cytoskeleton network", "setting": "NIH 3T3 EF cells; compared with the concentrations used in harmol dimers test", "result": "higher concentrations"},
      {"measurement": "inhibition of migration compared with the harmol dimers", "setting": "[5]; NIH 3T3 EF cells, 5 µM", "result": "lower inhibition of migration"},
      {"measurement": "tumoral growth inhibition", "setting": "B16F10 tumor; daily per os 100 mg/kg (2 x 50 mg/kg) for 15 days", "result": "Any tumoral growth inhibition"},
      {"measurement": "tumoral growth inhibition", "setting": "B16F10 tumor; daily per os 200 mg/Kg (2 x 100 mg/kg) for 15 days", "result": "Any tumoral growth inhibition"},
      {"measurement": "cytotoxicity against human tumor cell lines", "setting": "human tumor cell lines", "result": "strong cytotoxicity"},
      {"measurement": "inhibition of cyclin-dependent kinases (CDKs)", "setting": "[7]", "result": "selective inhibitor"},
      {"measurement": "monoamine oxydase inhibition", "setting": "monoamine oxydase", "result": "monoamine oxydase inhibitor"}
    ]}
  ]
}
